Experimental data: ChEMBL document CHEMBL3997854, “Discovery of Orally Efficacious Tetrahydrobenzimidazoles as TGR5 Agonists for Type 2 Diabetes” (ACS Med Chem Lett, 2017)

What was measured:
Format in all cases: ADME, organism-based
[1] = Cmax in overnight fasted C57BL/6J mouse at 20 mg/kg, po administered via gavage by LC-MS/MS analysis; parameters: dose 20 mg/kg, route oral; settings: in vivo
[2] = Half life in overnight fasted C57BL/6J mouse at 20 mg/kg, po administered via gavage by LC-MS/MS analysis; settings: in vivo
[3] = AUClast in overnight fasted C57BL/6J mouse at 20 mg/kg, po administered via gavage after 24 hrs by LC-MS/MS analysis; parameters: dose 20 mg/kg, time < 24 hr, route oral; settings: in vivo
[4] = Bioavailability in overnight fasted C57BL/6J mouse at 5 mg/kg, iv by LC-MS/MS analysis; settings: in vivo
[5] = Plasma concentration in C57BL/6J mouse at 30 mg/kg, po measured at 2 hrs post dose by LC-MS/MS analysis
[6] = Clearance in overnight fasted C57BL/6J mouse at 5 mg/kg, iv by LC-MS/MS analysis; settings: in vivo
[7] = Volume of distribution at steady state in overnight fasted C57BL/6J mouse at 5 mg/kg, iv by LC-MS/MS analysis; settings: in vivo, read-out: Vdss

## COc1ccc(C2(C)CCCc3nc(SCc4c(F)cc(OCCOCCOCCN(C)C)cc4F)n(-c4ccc(F)cc4)c32)cc1OC (stereo not given)
[1]
  Cmax: 2890 ng/mL
[2]
  half-life: 2.1 h
[3]
  AUC(0-t) at 24 h: 9350 ng·h/mL
[4]
  bioavailability: 27.5%
[5]
  concentration at 2 h: 2210 nM
[6]
  clearance: 9.68 mL/min/kg
[7]
  Vd: 0.947 L/kg

## COc1cc(C2(C)CCCc3nc(SCc4c(F)ccc(OCCOCCOCCN(C)C)c4F)n(-c4ccc(F)cc4)c32)ccc1Cl (stereo not given)
[5]
  concentration at 2 h: 760 nM

## COc1ccc(C2(C)CCCc3nc(SCc4ncccn4)n(-c4ccc(F)cc4)c32)cc1OC (stereo not given)
[5]
  concentration at 2 h: 100 nM

## COc1cc(C2(C)CCCc3nc(SCc4ncccn4)n(-c4ccc(F)cc4)c32)ccc1Cl (stereo not given)
[1]
  Cmax: 507 ng/mL
[3]
  AUC(0-t) at 24 h: 527 ng·h/mL
[4]
  bioavailability: 9.44%
[5]
  concentration at 2 h: 200 nM
[6]
  clearance: 58.4 mL/min/kg
[7]
  Vd: 1.43 L/kg

## COc1cc(C2(C)CCCc3nc(SCc4ncccn4)n(-c4ccc(F)cc4)c32)ccc1F (stereo not given)
[1]
  Cmax: 913 ng/mL
[3]
  AUC(0-t) at 24 h: 785 ng·h/mL
[4]
  bioavailability: 10.8%
[5]
  concentration at 2 h: 280 nM
[6]
  clearance: 45.3 mL/min/kg
[7]
  Vd: 0.856 L/kg

## COc1cc(C2(C)CCCc3nc(SCc4c(F)cc(OCCOCCOCCN(C)C)cc4F)n(-c4ccc(F)cc4)c32)ccc1F (stereo not given)
[1]
  Cmax: 2410 ng/mL
[2]
  half-life: 2 h
[3]
  AUC(0-t) at 24 h: 7160 ng·h/mL
[4]
  bioavailability: 22.1%
[5]
  concentration at 2 h: 2110 nM
[6]
  clearance: 10.2 mL/min/kg
[7]
  Vd: 0.818 L/kg

## COc1cc(C2(C)CCCc3nc(SCc4c(F)cc(OCCOCCOCCN(C)C)cc4F)n(-c4ccc(F)cc4)c32)ccc1Cl (stereo not given)
[1]
  Cmax: 918 ng/mL
[2]
  half-life: 1.33 h
[3]
  AUC(0-t) at 24 h: 2540 ng·h/mL
[4]
  bioavailability: 13.9%
[5]
  concentration at 2 h: 1610 nM
[6]
  clearance: 18.1 mL/min/kg
[7]
  Vd: 1.63 L/kg
